The target in test [1] is Cannabinoid receptor 2 (Homo sapiens, UniProt P34972). The experiment in a line: Agonist activity at human CB2 receptor expressed in mouse AtT20 cells by FLIPR assay. In kind it is functional, cell-based.
The target of test [2] is Cannabinoid receptor 1 (Homo sapiens, UniProt P21554). The experiment in a line: Agonist activity at human CB1 receptor expressed in mouse AtT20 cells by FLIPR assay. The class given is functional, cell-based.
The target in test [3] is T1, Cyclin-G-associated kinase (Homo sapiens, UniProt O14976).
T1 sequence (O14976 whole entry): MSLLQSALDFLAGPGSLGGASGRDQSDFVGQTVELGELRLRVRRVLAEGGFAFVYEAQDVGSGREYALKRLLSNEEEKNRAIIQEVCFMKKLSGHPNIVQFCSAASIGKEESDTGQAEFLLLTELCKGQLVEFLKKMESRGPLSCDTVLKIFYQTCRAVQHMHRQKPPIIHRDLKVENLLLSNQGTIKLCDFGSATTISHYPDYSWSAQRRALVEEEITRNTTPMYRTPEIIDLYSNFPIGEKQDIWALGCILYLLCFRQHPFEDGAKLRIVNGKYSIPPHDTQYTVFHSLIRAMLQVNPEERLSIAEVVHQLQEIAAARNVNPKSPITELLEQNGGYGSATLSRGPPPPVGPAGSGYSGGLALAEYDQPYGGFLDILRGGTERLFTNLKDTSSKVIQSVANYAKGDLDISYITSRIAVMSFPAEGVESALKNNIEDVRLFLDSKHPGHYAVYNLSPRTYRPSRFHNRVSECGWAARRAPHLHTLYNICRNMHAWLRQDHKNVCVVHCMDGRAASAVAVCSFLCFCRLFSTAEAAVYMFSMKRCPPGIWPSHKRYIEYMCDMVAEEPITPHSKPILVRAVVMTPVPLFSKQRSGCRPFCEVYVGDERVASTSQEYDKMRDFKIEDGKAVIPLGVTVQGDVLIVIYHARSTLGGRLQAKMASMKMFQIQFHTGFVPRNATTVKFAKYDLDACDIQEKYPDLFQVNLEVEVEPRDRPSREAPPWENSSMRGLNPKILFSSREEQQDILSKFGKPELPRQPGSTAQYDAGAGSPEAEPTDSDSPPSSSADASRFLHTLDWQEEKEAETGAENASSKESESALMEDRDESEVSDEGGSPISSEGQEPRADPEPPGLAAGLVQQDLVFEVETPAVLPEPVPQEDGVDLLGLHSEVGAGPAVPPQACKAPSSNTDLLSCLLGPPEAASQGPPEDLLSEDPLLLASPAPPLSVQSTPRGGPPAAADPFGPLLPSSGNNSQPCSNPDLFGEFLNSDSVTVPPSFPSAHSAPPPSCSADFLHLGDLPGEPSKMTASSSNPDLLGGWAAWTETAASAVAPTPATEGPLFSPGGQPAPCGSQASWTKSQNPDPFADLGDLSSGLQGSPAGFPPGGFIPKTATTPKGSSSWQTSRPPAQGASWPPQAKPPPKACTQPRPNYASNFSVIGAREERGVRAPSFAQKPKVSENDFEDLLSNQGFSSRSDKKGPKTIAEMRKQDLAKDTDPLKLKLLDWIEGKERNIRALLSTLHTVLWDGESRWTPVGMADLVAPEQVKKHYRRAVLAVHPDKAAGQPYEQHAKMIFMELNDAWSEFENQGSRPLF
The test can be described thus: Binding affinity to GAK (unknown origin) by KINOMEscan analysis.

The target in test [4] is Microtubule-associated protein tau (Homo sapiens) (UniProt P10636). The experiment in a line: Inhibition of heparin-induced tau protein (unknown origin) aggregation at 100 uM incubated for 3 days by Thioflavin T fluorescence assay. The settings on record: time 3.0 day.
The target in test [5] is Mu-type opioid receptor (Homo sapiens, UniProt P35372). The test can be described thus: Displacement of [3H]DAMGO from human cloned mu-opioid receptor by radioligand binding assay. (In general: Loss of bound radioactivity is the signal in a displacement assay; it reports binding, not function.)

The source of these data is ChEMBL document CHEMBL5214968, “Recent Scaffold Hopping Applications in Central Nervous System Drug Discovery” (J Med Chem, 2022).

Sequence of Cannabinoid receptor 1 (P21554 whole entry): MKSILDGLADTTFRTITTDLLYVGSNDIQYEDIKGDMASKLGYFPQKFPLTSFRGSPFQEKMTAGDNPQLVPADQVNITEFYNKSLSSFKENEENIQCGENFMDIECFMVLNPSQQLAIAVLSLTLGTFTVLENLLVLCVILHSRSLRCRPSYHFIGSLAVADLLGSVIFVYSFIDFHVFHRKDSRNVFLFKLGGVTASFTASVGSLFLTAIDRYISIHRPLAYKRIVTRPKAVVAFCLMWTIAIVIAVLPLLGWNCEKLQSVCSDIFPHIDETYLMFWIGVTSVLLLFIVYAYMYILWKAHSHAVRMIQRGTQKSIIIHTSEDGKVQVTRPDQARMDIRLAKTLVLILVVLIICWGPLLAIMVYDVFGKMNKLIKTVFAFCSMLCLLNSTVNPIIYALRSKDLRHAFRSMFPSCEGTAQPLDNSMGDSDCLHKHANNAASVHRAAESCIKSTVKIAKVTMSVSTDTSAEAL
Sequence of Cannabinoid receptor 2 (P34972 whole entry): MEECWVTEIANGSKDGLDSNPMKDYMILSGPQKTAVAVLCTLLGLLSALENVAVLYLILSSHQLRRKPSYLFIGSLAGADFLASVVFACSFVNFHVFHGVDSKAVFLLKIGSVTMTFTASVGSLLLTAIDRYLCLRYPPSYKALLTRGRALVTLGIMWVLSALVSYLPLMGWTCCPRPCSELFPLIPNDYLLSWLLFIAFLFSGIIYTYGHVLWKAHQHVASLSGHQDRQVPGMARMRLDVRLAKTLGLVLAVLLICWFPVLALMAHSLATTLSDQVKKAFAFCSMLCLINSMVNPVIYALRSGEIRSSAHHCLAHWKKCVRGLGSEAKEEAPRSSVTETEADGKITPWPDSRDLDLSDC
Sequence of Microtubule-associated protein tau (Homo sapiens) (P10636 whole entry): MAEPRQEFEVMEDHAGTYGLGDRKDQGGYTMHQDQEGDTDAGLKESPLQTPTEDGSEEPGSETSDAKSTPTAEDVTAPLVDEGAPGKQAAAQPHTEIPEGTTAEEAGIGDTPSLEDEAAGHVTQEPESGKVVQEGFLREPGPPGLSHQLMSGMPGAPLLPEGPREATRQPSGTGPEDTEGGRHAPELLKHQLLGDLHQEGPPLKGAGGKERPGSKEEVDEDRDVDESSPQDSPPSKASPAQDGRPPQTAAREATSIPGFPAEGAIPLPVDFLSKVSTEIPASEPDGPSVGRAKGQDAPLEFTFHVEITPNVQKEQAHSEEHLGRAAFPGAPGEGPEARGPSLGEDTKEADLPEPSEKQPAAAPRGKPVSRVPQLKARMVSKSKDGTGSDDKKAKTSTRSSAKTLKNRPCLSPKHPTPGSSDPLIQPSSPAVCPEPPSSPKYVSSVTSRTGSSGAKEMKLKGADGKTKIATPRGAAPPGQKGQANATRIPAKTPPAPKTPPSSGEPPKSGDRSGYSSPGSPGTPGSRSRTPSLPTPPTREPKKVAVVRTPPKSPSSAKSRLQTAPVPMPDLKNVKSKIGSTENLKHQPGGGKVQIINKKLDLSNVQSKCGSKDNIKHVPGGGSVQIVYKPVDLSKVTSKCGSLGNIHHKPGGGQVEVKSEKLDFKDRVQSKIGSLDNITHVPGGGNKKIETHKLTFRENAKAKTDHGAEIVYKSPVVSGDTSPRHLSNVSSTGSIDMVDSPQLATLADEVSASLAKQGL
Sequence of Mu-type opioid receptor (P35372 whole entry): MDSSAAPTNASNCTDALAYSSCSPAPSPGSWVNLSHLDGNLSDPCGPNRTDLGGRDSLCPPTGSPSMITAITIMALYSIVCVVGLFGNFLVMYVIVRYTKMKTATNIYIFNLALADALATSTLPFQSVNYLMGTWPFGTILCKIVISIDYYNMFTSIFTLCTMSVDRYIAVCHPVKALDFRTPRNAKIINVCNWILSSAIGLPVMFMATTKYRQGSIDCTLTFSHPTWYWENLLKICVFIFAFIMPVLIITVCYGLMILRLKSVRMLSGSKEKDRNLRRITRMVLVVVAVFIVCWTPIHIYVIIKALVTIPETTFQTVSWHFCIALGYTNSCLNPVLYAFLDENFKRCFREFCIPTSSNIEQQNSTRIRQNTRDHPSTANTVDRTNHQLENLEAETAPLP

Regarding `CC(C)(NC(=O)c1nn(CCCCCF)c2ccccc12)c1ccccc1`, the EC50 (in general, the concentration at which the effect is half-maximal) in test [1] came out at 11.2 nM; in test [2], 0.43 nM.
As to `COc1ccc(-c2cnc3c(c2)nnn3-c2ccccc2)cc1OC`, in test [3], the dissociation constant Kd (as a rule, the concentration at which binding is half-saturated) is above 30000 nM.
Consider `O=C(NC1CC1)c1nn(-c2ccc(F)cc2)c(=O)c2cscc12`, for which the inhibition (commonly the drop in the measured response relative to a control, in per cent) in test [4] was determined as 51%.
On to `O=C(NC1CC1)/C(=N\O)c1cscc1C(=O)NC12CC3CC(CC(C3)C1)C2`, for which the inhibition in test [4] turned out to be 30%.
As for `CC(C)(NC(=O)c1cn(CCCCCF)c2ncccc12)c1ccccc1`, the half-maximal effective concentration (EC50) came out at 11.3 nM in test [1] and 4.7 nM in test [2].
For `C=CCO/N=C(\C(=O)NC1CC1)c1cscc1C(=O)Nc1ccc(F)cc1`, the inhibition in test [4] was 33%.
`CC(C)(NC(=O)c1cn(CCCCCF)c2ccccc12)c1ccccc1`: the values for the EC50 in test [1] and in test [2] were 39.6 nM and 2.8 nM, respectively.
On to `O=C(NCCc1ccccc1)[C@H]1CCN(C(=O)Cc2ccc(O)cc2)[C@@H]1C(=O)NCCc1c[nH]c2ccccc12`, for which the affinity in test [5], expressed as Ki, was 820 nM.
